These results are taken from PMC10221469 (Viruses, 2023).

Where two headings read alike, the source gives them in different places.

Data set [1] has as its system SARS-CoV-2. The data set can be described thus: microbe, parasite or virus in culture. It counts as cell-based. The settings on record: Severe acute respiratory syndrome coronavirus 2, Vero C1008; read-out: CPE IC50.
For data set [2], the system named is SARS-CoV-2. As to the kind of experiment: qPCR readout of viral replication in Vero E6 cells. It counts as cell-based. Particulars: Severe acute respiratory syndrome coronavirus 2, Vero C1008, viral replication by qPCR.
Data set [3] concerns SARS-CoV-2. As to the kind of experiment: microbe, parasite or virus in culture. It counts as cell-based. Particulars: for IC50: read-out: IC50 (anti-viral activity).
The target of the next data set is SARS-CoV-2 nsp13 (Severe acute respiratory syndrome coronavirus 2, UniProt P0DTD1). As to the kind of experiment: biochemical. Particulars: 1 nM nsp13, 1 mM ATP, 15 min at 37 °C; unit printed in b45 only; read-out: IC50 nsp13 helicase unwinding activity.
A further data set concerns A549 ACE2+ cells. Particulars: 48 h, CellTiter-Glo.
Data set [4] can be described thus: in vitro. The settings on record: african green monkey.
A short description of data set [5]: in vitro. The settings on record: human, CC50, A549 ACE2+ cells, 48 h, CellTiter-Glo.
Data set [6] has as its system SARS-CoV-2. As to the kind of experiment: microbe, parasite or virus in culture. It counts as cell-based. Particulars: Severe acute respiratory syndrome coronavirus 2, A549 ACE2+ cells, 48 h p.i., read-out: inhibition of viral titer (plaque reduction).
In another data set the target is T1, serine protease TMPRSS2 (Homo sapiens, UniProt O15393).
T1 construct: Axxam S.p.A. (assay provider)
T1 sequence (O15393 whole entry): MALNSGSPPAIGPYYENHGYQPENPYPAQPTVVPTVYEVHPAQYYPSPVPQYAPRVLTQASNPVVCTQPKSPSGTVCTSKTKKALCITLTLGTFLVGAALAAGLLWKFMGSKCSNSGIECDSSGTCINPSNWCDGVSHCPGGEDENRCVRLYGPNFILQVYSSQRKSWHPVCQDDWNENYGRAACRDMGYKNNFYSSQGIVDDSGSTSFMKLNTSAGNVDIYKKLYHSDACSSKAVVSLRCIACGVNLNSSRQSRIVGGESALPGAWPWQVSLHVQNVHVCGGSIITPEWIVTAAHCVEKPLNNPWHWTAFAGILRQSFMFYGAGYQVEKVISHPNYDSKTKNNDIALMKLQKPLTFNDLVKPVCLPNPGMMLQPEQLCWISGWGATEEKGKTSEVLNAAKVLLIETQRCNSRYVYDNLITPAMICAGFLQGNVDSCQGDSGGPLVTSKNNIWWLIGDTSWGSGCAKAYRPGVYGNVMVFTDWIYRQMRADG
The data set can be described thus: TMPRSS2 inhibition (Axxam S.p.A. proprietary assay). It counts as biochemical.

Setting [7] is: Severe acute respiratory syndrome coronavirus 2, A549-ACE2, 48 h.
[8] abbreviates: ratio of CC50 over IC50, A549 ACE2+ cells.

In the case of `Nc1nc(N)c2nc(CNc3ccc(C(=O)N[C@@H](CCC(=O)O)C(=O)O)cc3)cnc2n1` [Aminopterin], the half-maximal inhibitory concentration (IC50) was 330 nM in the data set with SARS-CoV-2 [1]; 80 nM in the data set on SARS-CoV-2 [2]; above 1500 nM in the data set with SARS-CoV-2 [3] (setting [7]); 1300 nM in the data set on SARS-CoV-2 [3]; 2590 nM on SARS-CoV-2 nsp13. Besides, the “SI (selectivity index)” value in the data set with SARS-CoV-2 [3] amounted to 1.9. In addition, the CC50 is 2490 nM in the data set with A549 ACE2+ cells, above 33000 nM in “in vitro [4]” and above 2000 nM in “in vitro [5]”.
In the case of `CN(Cc1cnc2nc(N)nc(N)c2n1)c1ccc(C(=O)N[C@@H](CCC(=O)O)C(=O)O)cc1` [Methotrexate hydrate], the half-inhibitory concentration (IC50) in the data set on SARS-CoV-2 [1] is 2810 nM; with SARS-CoV-2 [2] it was 440 nM; in the data set on SARS-CoV-2 [3] (setting [7]) it was 630 nM; at SARS-CoV-2 nsp13 it was 2030 nM; against serine protease TMPRSS2, above 30000 nM. Moreover, the inhibition at 1.25 µM in the data set on SARS-CoV-2 [6] (1.25 µM) stood at 94%. Moreover, in the data set on SARS-CoV-2 [6] (2.5 µM), the inhibition at 2.5 µM worked out at 98%. Moreover, the results for the CC50 in the data set “in vitro [4]” and in “in vitro [5]” were above 33000 nM and 1180 nM, respectively.
As for `Nc1nc2[nH]cc(CCc3ccc(C(=O)N[C@@H](CCC(=O)O)C(=O)O)cc3)c2c(=O)[nH]1` [Pemetrexed disodium heptahydrate], the half-maximal inhibitory concentration (IC50) in the data set on SARS-CoV-2 [3] came to 5000 nM. The CC50 was 2430 nM in the data set on A549 ACE2+ cells and above 2000 nM in the data set “in vitro [5]”.
For the compound `C#CCC(Cc1cnc2nc(N)nc(N)c2n1)c1ccc(C(=O)N[C@@H](CCC(=O)O)C(=O)O)cc1` (stereo partly drawn) [Pralatrexate], the IC50 amounted to 50 nM in the data set with SARS-CoV-2 [1]; 80 nM with SARS-CoV-2 [2]; 4 nM with SARS-CoV-2 [3] (setting [7]); 140 nM on SARS-CoV-2 nsp13; 450 nM on serine protease TMPRSS2. Further, the “SI (selectivity index)” value in the data set with SARS-CoV-2 [3] was 2. The inhibition at 0.019 µM in the data set with SARS-CoV-2 [6] is 90.4%. Besides, the inhibition at 0.039 µM with SARS-CoV-2 [6] is 96.5%. Besides, the figures for the CC50 in the data set “in vitro [4]” and in the data set “in vitro [5]” were above 33000 nM and 8 nM, respectively.
On to `Cc1nc2ccc(CN(C)c3ccc(C(=O)N[C@@H](CCC(=O)O)C(=O)O)s3)cc2c(=O)[nH]1` [Raltitrexed], for which the “SI (selectivity index)” value in the data set on SARS-CoV-2 [3] (setting [8]) is recorded as 0.2. Besides, the half-inhibitory concentration (IC50) on SARS-CoV-2 nsp13 came out at 3220 nM. This compound also registered a CC50 in the data set “in vitro [5]” of 890 nM.
With `CCC(CC)COC(=O)[C@H](C)N[P@](=O)(OC[C@H]1O[C@@](C#N)(c2ccc3c(N)ncnn23)[C@H](O)[C@@H]1O)Oc1ccccc1` [Remdesivir], the IC50 was found to be 2740 nM in the data set on SARS-CoV-2 [1] and 3200 nM in the data set on SARS-CoV-2 [2]. Besides, the CC50 in “in vitro [4]” was above 33000 nM.
On to `COc1cc(NCc2ccc3nc(N)nc(N)c3c2C)cc(OC)c1OC` [Trimetrexate], for which the IC50 is 340 nM with SARS-CoV-2 [1]; 80 nM with SARS-CoV-2 [2]; 7 nM with SARS-CoV-2 [3] (setting [7]); 1560 nM at SARS-CoV-2 nsp13; above 30000 nM against serine protease TMPRSS2. Moreover, the “SI (selectivity index)” value in the data set with SARS-CoV-2 [3] (setting [8]) came to 1.4. The inhibition at 0.009 µM with SARS-CoV-2 [6] (0.009 µM) turned out to be 86%. Besides, in the data set on SARS-CoV-2 [6], the inhibition at 0.019 µM came to 97.5%. In addition, the inhibition at 0.039 µM in the data set with SARS-CoV-2 [6] amounted to 96.5%. Also, the CC50 in the data set “in vitro [4]” is above 33000 nM; in the data set “in vitro [5]” it was 10 nM.
